Assay results taken from ChEMBL document CHEMBL1135809 (J Med Chem, 2002).

Experiments:
[1] = biological target: Sigma non-opioid intracellular receptor 1 (Homo sapiens) (UniProt Q99720); experiment: Selectivity ratio (Sigma1/Sigma2)
D(1A) dopamine receptor = D(1A) dopamine receptor (Mus musculus, UniProt Q61616); experiment: Inhibition of SCH 23390 binding to Dopamine receptor D1
[2] = biological target: T1, 5-hydroxytryptamine receptor 1A (Mus musculus, UniProt Q64264); experiment: Inhibition of […] binding to 5-hydroxytryptamine 1A receptor
T1 sequence (Q64264 whole entry): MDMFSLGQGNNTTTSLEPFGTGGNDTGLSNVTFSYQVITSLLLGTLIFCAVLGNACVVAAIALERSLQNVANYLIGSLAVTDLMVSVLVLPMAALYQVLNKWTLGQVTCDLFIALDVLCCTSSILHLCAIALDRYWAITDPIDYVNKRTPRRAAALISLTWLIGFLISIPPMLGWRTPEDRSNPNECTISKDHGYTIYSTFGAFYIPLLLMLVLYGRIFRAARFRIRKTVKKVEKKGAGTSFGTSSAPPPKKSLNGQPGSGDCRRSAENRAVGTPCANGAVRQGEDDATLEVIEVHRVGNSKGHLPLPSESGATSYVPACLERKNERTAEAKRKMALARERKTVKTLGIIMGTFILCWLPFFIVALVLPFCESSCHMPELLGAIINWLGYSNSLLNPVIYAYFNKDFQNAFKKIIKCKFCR

Neuromedin-K receptor = biological target: T2, Neuromedin-K receptor (Homo sapiens, UniProt P29371); experiment: Inhibition of [125I][MePhe7]-NKB binding to human Tachykinin receptor 3 (NK3)
T2 sequence (P29371 whole entry): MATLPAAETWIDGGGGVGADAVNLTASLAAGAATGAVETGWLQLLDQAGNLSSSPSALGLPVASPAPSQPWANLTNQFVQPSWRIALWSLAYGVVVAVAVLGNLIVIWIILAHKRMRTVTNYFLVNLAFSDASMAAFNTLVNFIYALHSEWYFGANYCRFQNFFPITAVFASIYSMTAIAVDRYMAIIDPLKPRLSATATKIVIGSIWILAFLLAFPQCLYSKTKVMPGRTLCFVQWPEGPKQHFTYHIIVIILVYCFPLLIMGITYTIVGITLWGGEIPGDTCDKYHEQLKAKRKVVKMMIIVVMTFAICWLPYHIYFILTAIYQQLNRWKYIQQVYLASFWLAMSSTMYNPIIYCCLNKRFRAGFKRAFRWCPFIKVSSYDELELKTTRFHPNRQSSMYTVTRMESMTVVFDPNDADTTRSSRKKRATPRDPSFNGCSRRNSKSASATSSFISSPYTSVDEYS

Substance-K receptor = biological target: T3, Substance-K receptor (Homo sapiens, UniProt P21452); experiment: Inhibition of [125I]NKA binding to human Tachykinin receptor 2 (NK2)
T3 sequence (P21452 whole entry): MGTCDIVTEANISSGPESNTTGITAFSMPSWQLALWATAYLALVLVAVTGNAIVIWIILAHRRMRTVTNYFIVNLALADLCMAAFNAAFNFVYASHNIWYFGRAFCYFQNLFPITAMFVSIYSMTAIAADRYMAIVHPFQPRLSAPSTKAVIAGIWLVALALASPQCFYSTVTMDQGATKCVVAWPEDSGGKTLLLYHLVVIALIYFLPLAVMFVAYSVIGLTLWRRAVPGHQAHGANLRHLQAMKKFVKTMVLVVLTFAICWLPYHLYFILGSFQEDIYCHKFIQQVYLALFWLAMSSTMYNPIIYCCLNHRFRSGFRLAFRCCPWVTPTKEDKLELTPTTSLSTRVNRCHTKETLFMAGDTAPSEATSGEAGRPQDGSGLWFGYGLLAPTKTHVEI

[3] = biological target: Glutamate receptor ionotropic, NMDA 2C (Rattus norvegicus, UniProt Q00961); experiment: Inhibition of MK 801 binding to NMDA, PCP receptor
[4] = biological target: T4, 5-hydroxytryptamine receptor 3A (Homo sapiens, UniProt P46098); experiment: Inhibition of GR-65630 binding to 5-hydroxytryptamine 3 receptor
T4 sequence (P46098 whole entry): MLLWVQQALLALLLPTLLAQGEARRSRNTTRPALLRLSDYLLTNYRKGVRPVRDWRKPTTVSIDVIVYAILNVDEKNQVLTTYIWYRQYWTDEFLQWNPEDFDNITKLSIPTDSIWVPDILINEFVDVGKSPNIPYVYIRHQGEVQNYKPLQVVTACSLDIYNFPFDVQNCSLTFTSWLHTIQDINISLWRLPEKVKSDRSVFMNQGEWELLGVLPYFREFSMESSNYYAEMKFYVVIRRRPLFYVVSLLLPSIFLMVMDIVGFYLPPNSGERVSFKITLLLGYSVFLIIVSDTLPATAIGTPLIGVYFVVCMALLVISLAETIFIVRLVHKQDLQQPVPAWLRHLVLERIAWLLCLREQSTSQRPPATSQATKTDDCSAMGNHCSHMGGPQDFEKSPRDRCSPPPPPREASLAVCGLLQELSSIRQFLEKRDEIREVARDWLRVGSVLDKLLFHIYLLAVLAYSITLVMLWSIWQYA

Substance-P receptor = Substance-P receptor (Homo sapiens, UniProt P25103); experiment: Inhibition of [Sar9,Met(O2)11]-SP binding to human Tachykinin receptor 1 (NK1)
[5] = The compound was tested for inhibition of serotonin reuptake; type: functional
Histamine H1 receptor = Histamine H1 receptor (Homo sapiens, UniProt P35367); experiment: Inhibition of mepyramine binding to Histamine H1 receptor
[6] = biological target: T5, Alpha-2A adrenergic receptor (Homo sapiens, UniProt P08913); experiment: Inhibition of idazoxane binding to noradrenaline alpha-2 receptor
T5 sequence (P08913 whole entry): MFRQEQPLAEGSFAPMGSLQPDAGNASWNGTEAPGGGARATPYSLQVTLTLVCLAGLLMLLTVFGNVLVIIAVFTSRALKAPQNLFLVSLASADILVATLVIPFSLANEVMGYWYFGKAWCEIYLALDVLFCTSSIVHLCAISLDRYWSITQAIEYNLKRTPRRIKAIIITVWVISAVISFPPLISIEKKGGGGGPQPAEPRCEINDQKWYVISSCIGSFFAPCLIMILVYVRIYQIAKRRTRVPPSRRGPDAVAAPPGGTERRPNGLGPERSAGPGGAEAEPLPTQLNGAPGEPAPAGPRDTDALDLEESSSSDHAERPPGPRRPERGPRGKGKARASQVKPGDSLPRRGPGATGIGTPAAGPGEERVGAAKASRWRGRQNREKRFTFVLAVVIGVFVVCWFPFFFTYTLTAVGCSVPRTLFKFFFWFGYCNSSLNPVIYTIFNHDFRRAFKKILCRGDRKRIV

[7] = biological target: 5-hydroxytryptamine receptor 2A (Homo sapiens, UniProt P28223); experiment: Inhibition of ketanserin binding to 5-hydroxytryptamine 2A receptor
[8] = The compound was tested for inhibition of noradrenaline reuptake; type: functional
[9] = Inhibition of prazosin binding to noradrenaline alpha-1 receptor

Sequence of D(1A) dopamine receptor (Q61616 whole entry): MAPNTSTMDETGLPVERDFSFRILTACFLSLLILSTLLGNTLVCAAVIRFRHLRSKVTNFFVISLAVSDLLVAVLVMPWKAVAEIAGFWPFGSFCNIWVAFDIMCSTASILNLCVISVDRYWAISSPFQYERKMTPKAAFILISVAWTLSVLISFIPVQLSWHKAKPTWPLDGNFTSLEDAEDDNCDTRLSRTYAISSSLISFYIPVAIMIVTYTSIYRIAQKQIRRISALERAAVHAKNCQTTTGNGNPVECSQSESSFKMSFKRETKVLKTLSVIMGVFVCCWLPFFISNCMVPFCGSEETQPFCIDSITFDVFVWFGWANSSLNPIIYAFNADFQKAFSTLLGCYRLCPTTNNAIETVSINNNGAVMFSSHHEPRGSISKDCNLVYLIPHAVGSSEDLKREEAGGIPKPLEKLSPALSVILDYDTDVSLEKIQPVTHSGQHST
Sequence of 5-hydroxytryptamine receptor 2A (P28223 whole entry): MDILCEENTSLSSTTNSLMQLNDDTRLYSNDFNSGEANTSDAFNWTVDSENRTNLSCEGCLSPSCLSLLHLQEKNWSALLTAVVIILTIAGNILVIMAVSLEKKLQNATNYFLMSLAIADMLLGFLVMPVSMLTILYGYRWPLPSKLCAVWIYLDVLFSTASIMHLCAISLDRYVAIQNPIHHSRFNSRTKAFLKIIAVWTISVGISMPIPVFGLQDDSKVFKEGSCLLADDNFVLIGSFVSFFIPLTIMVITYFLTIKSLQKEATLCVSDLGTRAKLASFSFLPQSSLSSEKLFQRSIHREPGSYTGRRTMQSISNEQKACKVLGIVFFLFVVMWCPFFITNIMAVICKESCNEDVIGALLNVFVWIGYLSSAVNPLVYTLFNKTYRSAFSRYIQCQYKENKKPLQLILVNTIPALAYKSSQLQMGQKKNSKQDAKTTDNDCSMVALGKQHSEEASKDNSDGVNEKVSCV
Sequence of Histamine H1 receptor (P35367 whole entry): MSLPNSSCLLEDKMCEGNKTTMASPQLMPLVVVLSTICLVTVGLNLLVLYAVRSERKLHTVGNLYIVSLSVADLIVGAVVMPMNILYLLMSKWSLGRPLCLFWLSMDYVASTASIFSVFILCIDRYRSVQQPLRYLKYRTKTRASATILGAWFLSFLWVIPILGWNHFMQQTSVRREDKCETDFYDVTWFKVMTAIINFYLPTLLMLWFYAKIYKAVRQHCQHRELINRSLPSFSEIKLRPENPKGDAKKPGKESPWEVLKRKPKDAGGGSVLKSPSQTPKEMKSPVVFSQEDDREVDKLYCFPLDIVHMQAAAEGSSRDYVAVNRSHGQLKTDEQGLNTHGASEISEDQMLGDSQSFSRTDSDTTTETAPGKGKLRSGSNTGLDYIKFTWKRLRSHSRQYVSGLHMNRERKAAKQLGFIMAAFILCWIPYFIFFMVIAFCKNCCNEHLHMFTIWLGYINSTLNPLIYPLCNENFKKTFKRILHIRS
Sequence of Substance-P receptor (P25103 whole entry): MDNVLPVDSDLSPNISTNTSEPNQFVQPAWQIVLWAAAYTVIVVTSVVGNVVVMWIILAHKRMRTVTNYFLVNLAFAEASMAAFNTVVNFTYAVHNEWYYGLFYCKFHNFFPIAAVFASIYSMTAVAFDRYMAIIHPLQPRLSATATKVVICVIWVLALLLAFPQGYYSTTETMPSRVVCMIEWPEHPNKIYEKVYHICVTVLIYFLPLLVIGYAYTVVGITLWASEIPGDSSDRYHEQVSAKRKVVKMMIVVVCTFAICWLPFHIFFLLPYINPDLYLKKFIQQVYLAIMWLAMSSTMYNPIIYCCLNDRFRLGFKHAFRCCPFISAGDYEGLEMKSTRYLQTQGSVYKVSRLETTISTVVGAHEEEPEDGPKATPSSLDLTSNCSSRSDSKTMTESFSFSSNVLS
Sequence of Sigma non-opioid intracellular receptor 1 (Homo sapiens) (Q99720 whole entry): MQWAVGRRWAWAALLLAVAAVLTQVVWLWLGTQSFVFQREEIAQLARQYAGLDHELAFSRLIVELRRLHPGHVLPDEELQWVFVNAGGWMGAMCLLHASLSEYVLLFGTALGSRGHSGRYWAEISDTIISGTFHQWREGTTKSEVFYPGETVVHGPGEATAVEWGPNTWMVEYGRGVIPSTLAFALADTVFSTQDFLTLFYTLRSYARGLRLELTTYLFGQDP
Sequence of Glutamate receptor ionotropic, NMDA 2C (Q00961 whole entry): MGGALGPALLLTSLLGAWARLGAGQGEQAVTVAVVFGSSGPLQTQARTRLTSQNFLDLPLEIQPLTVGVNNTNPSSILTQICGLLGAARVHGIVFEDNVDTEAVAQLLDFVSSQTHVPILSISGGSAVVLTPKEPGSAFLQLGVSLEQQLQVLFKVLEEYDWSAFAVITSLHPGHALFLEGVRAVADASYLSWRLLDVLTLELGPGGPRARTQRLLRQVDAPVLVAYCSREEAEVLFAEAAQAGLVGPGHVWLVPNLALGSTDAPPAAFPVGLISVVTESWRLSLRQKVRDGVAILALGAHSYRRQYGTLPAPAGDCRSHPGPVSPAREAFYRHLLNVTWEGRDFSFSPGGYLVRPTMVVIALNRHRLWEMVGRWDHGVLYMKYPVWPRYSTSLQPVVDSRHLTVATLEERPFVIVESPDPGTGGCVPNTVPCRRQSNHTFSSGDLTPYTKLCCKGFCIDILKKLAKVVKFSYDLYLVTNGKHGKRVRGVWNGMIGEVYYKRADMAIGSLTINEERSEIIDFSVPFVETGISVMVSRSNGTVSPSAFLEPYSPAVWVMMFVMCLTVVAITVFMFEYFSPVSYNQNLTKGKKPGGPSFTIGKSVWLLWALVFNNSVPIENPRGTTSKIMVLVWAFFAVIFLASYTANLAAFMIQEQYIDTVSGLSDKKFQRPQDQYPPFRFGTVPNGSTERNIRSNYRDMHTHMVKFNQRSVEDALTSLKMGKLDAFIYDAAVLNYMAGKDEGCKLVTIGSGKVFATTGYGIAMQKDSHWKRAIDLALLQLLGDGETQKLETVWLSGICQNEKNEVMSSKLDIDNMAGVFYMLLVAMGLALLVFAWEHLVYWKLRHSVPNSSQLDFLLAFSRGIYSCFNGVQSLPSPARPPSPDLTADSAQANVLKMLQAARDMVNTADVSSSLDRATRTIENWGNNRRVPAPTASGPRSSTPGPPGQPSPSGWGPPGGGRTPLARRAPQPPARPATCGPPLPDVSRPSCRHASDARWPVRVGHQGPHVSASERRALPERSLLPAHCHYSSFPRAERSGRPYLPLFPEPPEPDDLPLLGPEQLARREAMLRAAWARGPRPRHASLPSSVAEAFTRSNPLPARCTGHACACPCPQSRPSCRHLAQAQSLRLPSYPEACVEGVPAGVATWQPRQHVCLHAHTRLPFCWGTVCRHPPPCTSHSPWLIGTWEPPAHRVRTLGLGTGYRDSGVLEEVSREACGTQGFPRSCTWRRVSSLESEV

COC1Cc2ccccc2C2(CCN(C/C=C/c3ccccc3)CC2)O1 (stereo unspecified)
Selectivity ratio [1]: 301

COC1Cc2ccccc2C2(CCN(Cc3ccccc3)CC2)O1 (stereo unspecified)
IC50 (D(1A) dopamine receptor): > 10 µM
IC50 [2]: > 1 µM
IC50 (Neuromedin-K receptor): > 10 µM
IC50 (Substance-K receptor): > 10 µM
IC50 [3]: > 10 µM
IC50 [4]: > 10 µM
IC50 (Substance-P receptor): > 10 µM
IC50 [5]: 6 µM
IC50 (Histamine H1 receptor): > 10 µM
IC50 [6]: 3 µM
IC50 [7]: 6.6 µM

COC1Cc2ccccc2C2(CCN(CCCCc3ccccc3)CC2)O1 (stereo unspecified)
Selectivity ratio [1]: 30

OC1Cc2ccccc2C2(CCN(CCc3ccccc3)CC2)O1 (stereo unspecified)
Selectivity ratio [1]: 2

COC1Cc2ccccc2C2(CCN(CCCc3ccccc3)CC2)O1 (stereo unspecified)
IC50 (D(1A) dopamine receptor): > 10 µM
IC50 [2]: > 1 µM
IC50 (Neuromedin-K receptor): > 10 µM
IC50 (Substance-K receptor): > 10 µM
IC50 [3]: > 10 µM
IC50 [4]: > 10 µM
IC50 (Substance-P receptor): > 10 µM
IC50 [5]: 0.7 µM
IC50 (Histamine H1 receptor): 8 µM
IC50 [8]: 0.51 µM
IC50 [6]: 3.1 µM
IC50 [7]: 0.46 µM
IC50 [9]: 1.4 µM

OC1Cc2ccccc2C2(CCN(Cc3ccccc3)CC2)O1 (stereo unspecified)
Selectivity ratio [1]: 236

COC1OC2(CCN(Cc3ccccc3)CC2)c2ccccc21 (stereo unspecified)
IC50 (D(1A) dopamine receptor): > 10 µM
IC50 [2]: > 1 µM
IC50 (Neuromedin-K receptor): > 10 µM
IC50 (Substance-K receptor): > 10 µM
IC50 [3]: > 10 µM
IC50 [4]: > 10 µM
IC50 (Substance-P receptor): > 10 µM
IC50 [5]: 8 µM
IC50 (Histamine H1 receptor): > 10 µM
IC50 [8]: > 10 µM
IC50 [6]: 6.2 µM
IC50 [7]: > 10 µM
IC50 [9]: > 10 µM
